Here are results for 2 compounds from patent US4180578A, “2,4-Diamino-5-(4'-methylthio)benzylpyrimidenes, compounds, compositions and method of use” (Ludwig Heumann, & Co. GmbH, priority 1977, dated 1979).

In one data set the test system is E. Coli. Put plainly: MIC, serial dilution test, DST-Agar. In kind it is cell-based. The note with it: Escherichia coli, n = 15, DST-Agar, read-out: Geometrical mean value of MIC. From the text: (§1) MIC values in μg/ml (serial dilution test, DST-Agar)
(§2) Geometrical mean value of MIC in μg/ml

For a further data set, the system named is Enterococcus. Put plainly: MIC, serial dilution test, DST-Agar. The class given is cell-based. Conditions: n = 2, DST-Agar, read-out: Geometrical mean value of MIC.
Text: as §1, §2

The test system of another data set is Klebsiellae. Put plainly: MIC, serial dilution test, DST-Agar. The class given is cell-based. Conditions: n = 3, DST-Agar, read-out: Geometrical mean value of MIC.
Text: as §1, §2

Another data set concerns Proteus. Put plainly: MIC, serial dilution test, DST-Agar. The class given is cell-based. Conditions: n = 3, DST-Agar, read-out: Geometrical mean value of MIC.
Text: as §1, §2

A further data set can be described thus: in vivo. Conditions: po, mouse, intragastral, safety limits p = 0.05 printed for TMP: lower 2105.5, upper 3629.8. The text has this:
2,4-diamino-5-(3',5'-dimethoxy-4'-S-methyl)-
benzylpyrimidine (mouse, intragastral administration) (determined
according to J.T. Litchfield and F. Wilcoxon in "J. Pharmacol.

A short description of a further data set: Serum level, rat. The note with it: po, 50 mg/kg i.g. In kind it is in vivo. The protocol:
|Serum level, rat (50 mg/kg i.g.)

≈ marks a conversion by molar mass, not a printed value. Where only a bound is given, the exact number is not on record here.

The term MIC denotes the lowest concentration that inhibits growth of the organism. As usually defined, the LD50 is the dose expected to kill half of the subjects tested.

For `COc1cc(Cc2cnc(N)nc2N)cc(OC)c1SC` [2,4-diamino-5-(3',5-dimethoxy-4'-methylthio)-benzylpyrimidine], the MIC in the data set with E. Coli was 0.142 µg/mL (≈ 0.463 µM); in the data set with Enterococcus, 0.156 µg/mL (≈ 0.509 µM); with Klebsiellae it was 0.248 µg/mL (≈ 0.809 µM); in the data set on Proteus, 0.992 µg/mL (≈ 3.24 µM). In “in vivo”, this compound registered an LD50 of more than 5000 mg/kg. Also, the concentration at 0.5 h in the data set “Serum level, rat” was determined as 5000 ng/mL. The compound further gave a concentration at 1 h in “Serum level, rat” of 2700 ng/mL.
Consider `COc1cc(Cc2cnc(N)nc2N)cc(OC)c1OC` [TMP, 2,4-diamino-5-(3'4',5'-trimethoxybenzyl)-pyrimidine], for which the MIC in the data set on E. Coli was 0.108 µg/mL (≈ 0.372 µM); in the data set on Enterococcus, 0.078 µg/mL (≈ 0.269 µM); in the data set with Klebsiellae, 0.496 µg/mL (≈ 1.71 µM); with Proteus, 0.625 µg/mL (≈ 2.15 µM). This compound had an LD50 in the data set “in vivo” of 2760 mg/kg. The compound further showed a concentration at 0.5 h in “Serum level, rat” of 4500 ng/mL. Moreover, the concentration at 1 h in the data set “Serum level, rat” was found to be 3300 ng/mL.
